In ChEMBL document CHEMBL1201862, “PubChem BioAssay data set” (2004):
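1) Cells in 96-well plates. 2) Compound, 48 h, 5 concentrations. 3) Linear interpolation between surrounding doses. 4) Unreached endpoint = highest concentration. At the GI50, growth is halved.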 Activity calls are given as the source filed them. Cut-off read from the data, not from the text of the source: active = GI50 up to about 1.1 µM and inactive = higher.

Key:
Assay in all cases: inhibition of tumour cell growth, NCI panel, 48 h
SR = tested on: SR
K562 = tested on: K562
NCI-H522 = tested on: NCI-H522
HCC 2998 = tested on: HCC 2998
SN12C = tested on: SN12C
HOP-62 = tested on: HOP-62
NCI-H226 = tested on: NCI-H226
DMS-114 = tested on: DMS-114
M14 = tested on: M14
OVCAR-3 = tested on: OVCAR-3
KM12 = tested on: KM12
CCRF-CEM = tested on: CCRF-CEM
HCT-15 = tested on: HCT-15
SF-295 = tested on: SF-295
LOX IMVI = tested on: LOX IMVI
SK-OV-3 = tested on: SK-OV-3
HCT-116 = tested on: HCT-116
786-0 = tested on: 786-0
NCI/ADR-RES = tested on: NCI/ADR-RES

With C[C@H](O)C(=O)SC[C@H](NC(=O)CC[C@@H](N)C(=O)O)C(=O)NCC(=O)O the GI50 (SR) was > 100 µM (inactive), the GI50 (K562) was > 100 µM (inactive) and the GI50 (NCI-H522) was > 100 µM (inactive). The GI50 (HCC 2998) was > 100 µM (inactive), the GI50 (SN12C) was > 100 µM (inactive) and the GI50 (HOP-62) was > 100 µM (inactive). For the same compound, the GI50 (NCI-H226) was > 100 µM (inactive), the GI50 (DMS-114) was > 100 µM (inactive) and the GI50 (M14) was > 100 µM (inactive). For the same compound, the GI50 (OVCAR-3) was > 100 µM (inactive), the GI50 (KM12) was > 100 µM (inactive) and the GI50 (CCRF-CEM) was > 100 µM (inactive). For the same compound, the GI50 (HCT-15) was over 100 µM, the GI50 (SF-295) was > 100 µM (inactive) and the GI50 (LOX IMVI) was > 100 µM (inactive). For the same compound, the GI50 (SK-OV-3) was > 100 µM (inactive) and the GI50 (HCT-116) was > 100 µM (inactive).
With CC(C)=CC1(C)/C(=N\O)C(C)(CC(C)C)C(=O)N1O (stereo not drawn) the GI50 (SR) was > 100 µM (inactive), the GI50 (K562) was > 100 µM (inactive) and the GI50 (NCI-H522) was > 100 µM (inactive). For the same compound, the GI50 (HCC 2998) was > 100 µM (inactive), the GI50 (SN12C) was > 100 µM (inactive) and the GI50 (HOP-62) was > 100 µM (inactive). For the same compound, the GI50 (NCI-H226) was > 100 µM (inactive), the GI50 (DMS-114) was > 100 µM (inactive) and the GI50 (786-0) was > 100 µM (inactive). The GI50 (M14) was > 100 µM (inactive), the GI50 (OVCAR-3) was > 100 µM (inactive) and the GI50 (KM12) was > 100 µM (inactive). The GI50 (CCRF-CEM) was > 100 µM (inactive), the GI50 (HCT-15) was over 100 µM and the GI50 (SF-295) was > 100 µM (inactive). For the same compound, the GI50 (LOX IMVI) was > 100 µM (inactive), the GI50 (SK-OV-3) was > 100 µM (inactive) and the GI50 (HCT-116) was > 100 µM (inactive).
C/C=C/C1=CC(=O)C(O)C1O (stereo not drawn) was tested, and the GI50 (K562) was 30.6 µM (inactive), the GI50 (NCI-H522) was 5.86 µM (inactive) and the GI50 (HCC 2998) was 27.5 µM (inactive). For the same compound, the GI50 (SN12C) was 23.1 µM (inactive), the GI50 (HOP-62) was 47.6 µM (inactive) and the GI50 (NCI-H226) was 24.1 µM (inactive). The GI50 (DMS-114) was 22 µM (inactive), the GI50 (OVCAR-3) was 24.5 µM (inactive) and the GI50 (NCI/ADR-RES) was 25.5 µM (inactive). The GI50 (KM12) was 15.3 µM (inactive), the GI50 (CCRF-CEM) was 22.7 µM (inactive) and the GI50 (HCT-15) was 27.6 µM. For the same compound, the GI50 (SF-295) was 44.7 µM (inactive), the GI50 (LOX IMVI) was 16.5 µM (inactive) and the GI50 (SK-OV-3) was 40.7 µM (inactive). The GI50 (HCT-116) was 26.2 µM (inactive).
For O=C(c1nc2ccc(Cl)cc2nc1O)C(O)c1ccccc1 (stereo not drawn), the GI50 (SR) was 13 µM (inactive), the GI50 (K562) was 21.8 µM (inactive) and the GI50 (NCI-H522) was 10.9 µM (inactive). For the same compound, the GI50 (HCC 2998) was > 100 µM (inactive), the GI50 (SN12C) was > 100 µM (inactive) and the GI50 (HOP-62) was > 100 µM (inactive). The GI50 (NCI-H226) was 84.7 µM (inactive), the GI50 (DMS-114) was 56.5 µM (inactive) and the GI50 (786-0) was > 100 µM (inactive). The GI50 (M14) was > 100 µM (inactive), the GI50 (OVCAR-3) was 32.8 µM (inactive) and the GI50 (KM12) was 51.2 µM (inactive). For the same compound, the GI50 (CCRF-CEM) was 2.32 µM (inactive), the GI50 (HCT-15) was 98.6 µM and the GI50 (SF-295) was > 100 µM (inactive). The GI50 (LOX IMVI) was 34.8 µM (inactive), the GI50 (SK-OV-3) was > 100 µM (inactive) and the GI50 (HCT-116) was > 100 µM (inactive).
For N#C/C(=C1/Sc2c(nc[nH]c2=O)N1c1ccccc1)c1nc2ccccc2[nH]1, the GI50 (SR) was > 100 µM (inactive), the GI50 (K562) was > 100 µM (inactive) and the GI50 (NCI-H522) was > 100 µM (inactive). For the same compound, the GI50 (HCC 2998) was > 100 µM (inactive), the GI50 (SN12C) was > 100 µM (inactive) and the GI50 (HOP-62) was > 100 µM (inactive). For the same compound, the GI50 (DMS-114) was > 100 µM (inactive), the GI50 (M14) was > 100 µM (inactive) and the GI50 (OVCAR-3) was > 100 µM (inactive). The GI50 (KM12) was > 100 µM (inactive), the GI50 (CCRF-CEM) was > 100 µM (inactive) and the GI50 (HCT-15) was over 100 µM. The GI50 (SF-295) was > 100 µM (inactive), the GI50 (SK-OV-3) was > 100 µM (inactive) and the GI50 (HCT-116) was > 100 µM (inactive).
Cc1csc(/N=C(/NCCN2CCOCC2)Nc2nc(C)cs2)n1 was tested, and the GI50 (K562) was > 100 µM (inactive), the GI50 (NCI-H522) was > 100 µM (inactive) and the GI50 (HCC 2998) was > 100 µM (inactive). For the same compound, the GI50 (SN12C) was > 100 µM (inactive), the GI50 (HOP-62) was > 100 µM (inactive) and the GI50 (NCI-H226) was > 100 µM (inactive). The GI50 (DMS-114) was > 100 µM (inactive), the GI50 (OVCAR-3) was > 100 µM (inactive) and the GI50 (NCI/ADR-RES) was > 100 µM (inactive). The GI50 (KM12) was > 100 µM (inactive), the GI50 (CCRF-CEM) was > 100 µM (inactive) and the GI50 (HCT-15) was over 100 µM. For the same compound, the GI50 (SF-295) was > 80.2 µM (inactive), the GI50 (LOX IMVI) was > 100 µM (inactive) and the GI50 (SK-OV-3) was > 100 µM (inactive). For the same compound, the GI50 (HCT-116) was > 70.1 µM (inactive).
With COC(=O)C(C/C=C(\C)c1ccc(Cl)cc1)C(C)=O (stereo not drawn) the GI50 (K562) was 36.4 µM (inactive), the GI50 (NCI-H522) was 22.5 µM (inactive) and the GI50 (HCC 2998) was 75.9 µM (inactive). The GI50 (SN12C) was 56 µM (inactive), the GI50 (HOP-62) was > 56 µM (inactive) and the GI50 (NCI-H226) was 24.6 µM (inactive). For the same compound, the GI50 (DMS-114) was 19.9 µM (inactive), the GI50 (OVCAR-3) was 32.4 µM (inactive) and the GI50 (NCI/ADR-RES) was 23.7 µM (inactive). The GI50 (KM12) was 37 µM (inactive), the GI50 (CCRF-CEM) was 30.1 µM (inactive) and the GI50 (HCT-15) was 37.5 µM. For the same compound, the GI50 (SF-295) was 39.9 µM (inactive), the GI50 (LOX IMVI) was 14.9 µM (inactive) and the GI50 (SK-OV-3) was > 100 µM (inactive). For the same compound, the GI50 (HCT-116) was 41.7 µM (inactive).
For Cn1cc(NC(=O)[C@H]2CCC(N)=N2)cc1C(=O)NCCC(=N)N, the GI50 (SR) was > 100 µM (inactive), the GI50 (K562) was > 100 µM (inactive) and the GI50 (NCI-H522) was > 100 µM (inactive). The GI50 (HCC 2998) was > 100 µM (inactive), the GI50 (SN12C) was > 100 µM (inactive) and the GI50 (HOP-62) was > 100 µM (inactive). The GI50 (NCI-H226) was > 100 µM (inactive), the GI50 (DMS-114) was > 100 µM (inactive) and the GI50 (786-0) was > 100 µM (inactive). For the same compound, the GI50 (M14) was > 100 µM (inactive), the GI50 (OVCAR-3) was > 100 µM (inactive) and the GI50 (KM12) was > 100 µM (inactive). The GI50 (CCRF-CEM) was > 100 µM (inactive), the GI50 (SF-295) was > 100 µM (inactive) and the GI50 (LOX IMVI) was > 100 µM (inactive). For the same compound, the GI50 (SK-OV-3) was > 100 µM (inactive) and the GI50 (HCT-116) was > 100 µM (inactive).
